Experimental data: patent publication US20230046081A1, “SYNERGISTIC ACTIVITY OF NOVEL COMPOUNDS AGAINST PLANKTONIC AND BIOFILM CELLS OF CLINICALLY RELEVANT PATHOGENS” (priority 2021, published 2023)
Where a name gives a salt, the structure may show the parent alone.

Key:
[1] = dog, in vivo; cited from earlier work
[2] = tested on: bacterial and fungal biofilms (eight test organisms); experiment: Rapid biofilm eradication, 48-h old biofilms, 2 hour exposure; type: cell-based
Procedure: This example comprises performing biofilm growth as described above. After biofilm formation, control pegs (n=6) were removed and analyzed to determine the starting biofilm cell numbers via the drop dilution method. The 48-h old biofilms on the pegs were exposed to different concentrations of test antimicrobials, dissolved in an appropriate growth medium, for 2 hours to evaluate their efficacy alone and in combination. […] Following treatment, pegs were washed twice with sterile PBS, and the biofilm cells were dislodged into recovery medium and enumerated as described above.

[3] = tested on: Gram-positive, Gram-negative, and fungal biofilms; experiment: MBEC Assay, 48 h old biofilms on pegs, 24 h antimicrobial exposure; type: cell-based; settings: 24 hours of treatment
Procedure: The evaluation of the biofilm cultivation cell composition was evaluated using an MBEC Assay® biofilm inoculator, consisting of a polystyrene lid with 96 downward-protruding pegs and a corresponding base used to grow biofilms. A standardized inoculum was diluted in an appropriate biofilm growth medium to achieve a viable cell count of 1.5×10^6 CFU/mL of bacterial cells or 5×10^5 CFU/mL of fungal cells. Then, 150 μL of this inoculum was transferred into each appropriate well, and the peg lids were inserted into the microtiter plates. The plates were sealed with Parafilm and were incubated at optimum temperature for 48 h with slight rocking for bacteria and shaking at 200 rpm for fungal strains. After incubation, the peg lid was removed from the base and rinsed twice with sterile phosphate-buffered saline (PBS) for 2 min to remove loosely attached non-sessile cells. Before the antimicrobial challenge, the pegs in column 1 (n=8) were considered as the biofilm growth control; these pegs were removed from the lids, placed into 200 μL of recovery medium, and analyzed for starting biofilm cell numbers as described below. […] After the antimicrobial challenge, the pegs were rinsed twice with sterile PBS for 2 min and placed into a new 96-well plate containing 200 μL of recovery medium. The recovery plates were sealed with Parafilm, and biofilm cells were dislodged from the pegs by sonication for 30 min with a Branson 3510 bath sonicator. The biofilm cells in the recovery medium were serially diluted, and a drop dilution assay was performed to enumerate the viable cells.

[4] = tested on: Klebsiella pneumoniae, E. coli, S. epidermidis, P. aeruginosa, and C. albicans; settings: 40 mg/mL, locked for 21-25 h; cited from earlier work
[5] = tested on: commonly encountered pathogens; settings: cited from earlier work

| Compound | cochlear or vestibular neurotoxicity [1] | eradication of preformed biofilms, agent alone at its MBEC [2] | concentration alone able to eradicate all established biofilms [3] | biofilm colonization on catheter segments [4] | minimum ethanol required to provide a 3-log reduction [5] [%] |
| --- | --- | --- | --- | --- | --- |
| [H]/N=C(\N/C(=N/[H])NCCCCCCNC(=N)NC(=N)Nc1ccc(Cl)cc1)Nc1ccc(Cl)cc1 [chlorhexidine, 1,6-bis(4-chloro-phenylbiguanido)hexane] | did not induce cochlear or vestibular neurotoxicity |  |  |  |  |
| O=C(O)CN(CCN(CC(=O)O)CC(=O)O)CC(=O)O.[Na].[Na].[Na].[Na] [tetrasodium EDTA, tetrasodium ethylenediaminetetraacetic acid] |  | failed to eradicate | 4% | reduced biofilm colonization |  |
| [H]/N=C(\N/C(=N/[H])NCCCCCCNC(=N)NC(=N)Nc1ccc(Cl)cc1)Nc1ccc(Cl)cc1 [chlorhexidine HCl, 1,6-bis(4-chloro-phenylbiguanido)hexane, reference compound] |  | failed to eradicate | 100 µg/mL |  |  |
| CCO [ethanol, reference compound] |  | failed to eradicate | 50% |  | ≥ 60 |
